According to ChEMBL document CHEMBL1944584 (Bioorg Med Chem Lett, 2012):
Activity calls are given as the source filed them. The calls are words filed in the database; no cut-off is given here.

Key:
Format in all cases: cell-based
[1] = target: T1, Sodium-dependent dopamine transporter (Homo sapiens, UniProt Q01959); experiment: Displacement of [3H]WIN-35,428 from human DAT expressed in N2A cells after 15 mins by photoaffinity labeling
[2] = target: T1, Sodium-dependent dopamine transporter; experiment: Binding affinity to human His6-DAT expressed in LLCPK1 cells at 10 nM after 1.5 hrs measured 2 mins post-irradiation by SDS-PAGE/autoradiography; conditions: LLC-PK1, tested as the 125I-labelled form
[3] = target: T1, Sodium-dependent dopamine transporter; experiment: Binding affinity to human His6-DAT expressed in LLCPK1 cells at 10 nM after 1.5 hrs measured 2 mins post-irradiation by autoradiography in the presence of (+/-)-bupropion; conditions: LLC-PK1, tested as the 125I-labelled form
[4] = target: T1, Sodium-dependent dopamine transporter; experiment: Binding affinity to human His6-DAT expressed in LLCPK1 cells at 10 nM after 1.5 hrs measured 2 mins post-irradiation by autoradiography in the presence of (+/-)-cocaine; conditions: LLC-PK1, tested as the 125I-labelled form
[5] = target: T2, Neuronal acetylcholine receptor; alpha4/beta2 (Homo sapiens) (UniProt P17787+P43681); experiment: Binding affinity to human alpha4beta2 nAChR in HEK cells at 78 nM after 2 hrs measured 10 mins post-irradiation by autoradiography in the presence of 160 uM (+/-)-bupropion; conditions: HEK293, tested as the 125I-labelled form
[6] = target: T2, Neuronal acetylcholine receptor; alpha4/beta2 (Homo sapiens); experiment: Binding affinity to human alpha4beta2 nAChR in HEK cells at 0.21 nM after 5 hrs by gamma counting in the presence of (+/-)-bupropion; conditions: HEK293, tested as the 125I-labelled form

T1 sequence (Q01959 whole entry): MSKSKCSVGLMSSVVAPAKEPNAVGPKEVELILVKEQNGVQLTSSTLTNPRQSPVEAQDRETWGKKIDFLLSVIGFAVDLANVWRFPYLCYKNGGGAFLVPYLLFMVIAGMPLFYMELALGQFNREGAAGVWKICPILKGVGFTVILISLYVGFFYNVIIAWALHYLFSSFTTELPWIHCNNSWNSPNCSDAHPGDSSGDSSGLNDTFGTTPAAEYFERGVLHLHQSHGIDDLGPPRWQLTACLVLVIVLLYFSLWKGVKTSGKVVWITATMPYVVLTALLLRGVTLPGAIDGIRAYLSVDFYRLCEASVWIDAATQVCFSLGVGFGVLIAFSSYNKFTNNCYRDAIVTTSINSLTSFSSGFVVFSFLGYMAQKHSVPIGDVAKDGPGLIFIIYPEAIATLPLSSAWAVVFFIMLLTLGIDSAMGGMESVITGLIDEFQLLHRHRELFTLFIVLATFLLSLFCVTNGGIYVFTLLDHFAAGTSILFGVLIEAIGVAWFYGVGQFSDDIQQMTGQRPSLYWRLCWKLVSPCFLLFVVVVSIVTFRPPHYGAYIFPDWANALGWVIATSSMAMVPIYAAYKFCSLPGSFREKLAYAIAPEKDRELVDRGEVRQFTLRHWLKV

CC(NC(C)(C)C)C(=O)c1ccc(N=[N+]=[N-])c(I)c1 (racemic)
Ki [1]: 3.07 µM
Activity [2]: Active
Activity [3]: inactive
Activity [4]: inactive
Activity [5]: inactive
Activity [6]: inactive
